From ChEMBL document CHEMBL1201862, “PubChem BioAssay data set” (2004)
Calls of active or inactive are those of the source.

Tests used:
[1] = target: T1, Calpain-2 catalytic subunit (Sus scrofa, UniProt P43367); experiment: pig calpain II inhibitor potency, dose response, biochemical, fluorogenic peptide substrate (AID 1420); assay type: functional
T1 sequence (P43367 whole entry): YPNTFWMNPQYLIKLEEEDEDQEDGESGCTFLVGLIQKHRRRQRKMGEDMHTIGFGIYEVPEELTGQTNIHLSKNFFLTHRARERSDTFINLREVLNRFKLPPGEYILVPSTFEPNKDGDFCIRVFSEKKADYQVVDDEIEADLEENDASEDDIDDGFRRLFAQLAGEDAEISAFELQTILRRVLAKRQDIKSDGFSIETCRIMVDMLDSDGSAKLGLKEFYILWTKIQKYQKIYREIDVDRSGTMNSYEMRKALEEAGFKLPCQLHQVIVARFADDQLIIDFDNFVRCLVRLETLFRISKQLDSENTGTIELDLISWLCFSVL

[2] = microbe, parasite or virus in culture; assay type: functional; details: Mycobacterium tuberculosis
[3] = target: Induced myeloid leukemia cell differentiation protein Mcl-1 (Homo sapiens, UniProt Q07820); assay type: functional
Sequence of Induced myeloid leukemia cell differentiation protein Mcl-1 (Q07820 whole entry): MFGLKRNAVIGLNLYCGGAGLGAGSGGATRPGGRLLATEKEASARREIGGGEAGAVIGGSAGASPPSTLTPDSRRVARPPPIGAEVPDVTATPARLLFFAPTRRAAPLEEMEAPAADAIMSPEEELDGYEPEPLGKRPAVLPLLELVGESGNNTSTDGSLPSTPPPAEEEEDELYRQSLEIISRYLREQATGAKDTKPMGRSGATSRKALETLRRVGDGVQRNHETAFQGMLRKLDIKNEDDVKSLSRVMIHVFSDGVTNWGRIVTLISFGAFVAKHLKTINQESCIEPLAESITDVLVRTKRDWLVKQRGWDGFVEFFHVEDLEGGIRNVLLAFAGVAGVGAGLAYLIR

[4] = Luminescence Cell-Based Dose Retest to Confirm Inhibitors of Cancer Stem Cells. [Related pubchem assays (depositor defined):AID2717, AID2721]; assay type: functional; details: Homo sapiens
[5] = cytotoxicity in HEK-293T cells, dose response, cytotoxicity control for BCR NF-kB inhibitor project, luminescence, B-cell screen hits (AID 489021); assay type: functional, cell-based;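 further: HEK-293T cells carrying an NF-kB luciferase reporter; cells exposed to compound for about 14 hours before viability readout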
[6] = target: T2, Streptokinase A (Streptococcus pyogenes serotype M1, UniProt P10520); experiment: S. pyogenes streptokinase expression inhibitors, potency, dose response, plasminogen activation absorbance, OD405 (AID 1914); assay type: functional, Streptococcus pyogenes M1 GAS;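 further: secreted streptokinase activity via plasminogen activation per viability signal from cell pellet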
T2 sequence (P10520 whole entry): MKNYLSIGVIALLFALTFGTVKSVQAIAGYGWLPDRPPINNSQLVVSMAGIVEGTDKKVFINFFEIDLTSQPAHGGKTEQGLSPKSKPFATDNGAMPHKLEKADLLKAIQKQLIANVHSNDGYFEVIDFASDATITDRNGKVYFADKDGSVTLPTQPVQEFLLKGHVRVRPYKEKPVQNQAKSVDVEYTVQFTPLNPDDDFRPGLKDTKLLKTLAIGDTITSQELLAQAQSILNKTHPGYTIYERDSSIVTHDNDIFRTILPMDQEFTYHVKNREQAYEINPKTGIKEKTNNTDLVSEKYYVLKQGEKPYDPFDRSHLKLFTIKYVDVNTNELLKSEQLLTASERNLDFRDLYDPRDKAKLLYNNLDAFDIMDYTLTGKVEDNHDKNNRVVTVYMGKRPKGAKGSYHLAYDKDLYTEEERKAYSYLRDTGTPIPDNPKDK

[7] = system: Streptococcus; experiment: Group A Streptococcus viability loss, dose response, counter-screen for streptokinase expression inhibitor project, luminescence, BacTiterGlo (AID 1915); assay type: functional, organism-based;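 further: potency for reduction of bacterial viability or growth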
[8] = system: Streptococcus sp. 'group A'; experiment: growth inhibition of control SK(-) GAS strain, dose response, counter-screen for streptokinase expression inhibitor project, luminescence, kanamycin, BacTiterGlo, confirmation (AID 1900); assay type: functional, organism-based
[9] = target: T3, Ubiquitin-conjugating enzyme E2 N (Homo sapiens, UniProt P61088); assay type: functional;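 further: Dose-response confirmation in a TR-FRET assay detecting UBC13-driven polyubiquitin chain formation, inhibition measured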
T3 sequence (P61088 whole entry): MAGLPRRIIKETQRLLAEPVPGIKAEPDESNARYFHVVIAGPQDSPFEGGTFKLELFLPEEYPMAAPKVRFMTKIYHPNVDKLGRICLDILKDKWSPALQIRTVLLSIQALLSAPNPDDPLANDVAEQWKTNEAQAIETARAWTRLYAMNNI

[10] = target: Genome polyprotein (dengue virus type 2, UniProt P29990); experiment: Dengue-2 NS5 methyltransferase inhibitors, primary screen, biochemical, confirmation dose response (AID 588689); assay type: functional
Sequence of Genome polyprotein (P29990 2492-3391 limits assumed): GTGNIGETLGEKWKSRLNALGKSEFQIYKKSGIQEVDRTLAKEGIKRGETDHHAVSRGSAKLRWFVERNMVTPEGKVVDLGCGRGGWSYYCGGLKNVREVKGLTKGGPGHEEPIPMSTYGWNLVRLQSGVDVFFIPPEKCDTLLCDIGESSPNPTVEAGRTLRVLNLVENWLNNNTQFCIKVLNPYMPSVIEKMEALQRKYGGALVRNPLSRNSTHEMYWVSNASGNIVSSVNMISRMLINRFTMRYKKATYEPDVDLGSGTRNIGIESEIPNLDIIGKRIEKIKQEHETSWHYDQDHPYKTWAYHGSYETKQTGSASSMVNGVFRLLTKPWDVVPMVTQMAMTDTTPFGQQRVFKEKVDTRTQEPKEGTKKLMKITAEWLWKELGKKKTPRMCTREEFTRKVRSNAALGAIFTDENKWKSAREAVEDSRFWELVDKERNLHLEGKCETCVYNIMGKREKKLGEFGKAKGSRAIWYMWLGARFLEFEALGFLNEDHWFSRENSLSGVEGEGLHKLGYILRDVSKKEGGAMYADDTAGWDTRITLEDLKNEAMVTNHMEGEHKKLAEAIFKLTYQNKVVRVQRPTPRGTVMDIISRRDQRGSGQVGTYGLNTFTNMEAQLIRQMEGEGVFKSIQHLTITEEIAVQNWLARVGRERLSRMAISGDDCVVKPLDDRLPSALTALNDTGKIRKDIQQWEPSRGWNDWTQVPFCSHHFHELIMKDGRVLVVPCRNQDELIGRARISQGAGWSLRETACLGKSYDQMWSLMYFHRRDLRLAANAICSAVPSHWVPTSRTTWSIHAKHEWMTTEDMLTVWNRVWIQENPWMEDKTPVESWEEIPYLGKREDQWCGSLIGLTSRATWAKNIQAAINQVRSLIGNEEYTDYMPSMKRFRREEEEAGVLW

[11] = target: T4, Protein RecA (Mycobacterium tuberculosis, UniProt P9WHJ3); experiment: Fluorescence Cell-Free Homogeneous Dose Retest to Identify Inhibitors of RecA-Intein Splicing Activity. [Related pubchem assays (depositor defined):AID2097, AID2223, AID489010, AID492950]; assay type: functional
T4 sequence (P9WHJ3 whole entry): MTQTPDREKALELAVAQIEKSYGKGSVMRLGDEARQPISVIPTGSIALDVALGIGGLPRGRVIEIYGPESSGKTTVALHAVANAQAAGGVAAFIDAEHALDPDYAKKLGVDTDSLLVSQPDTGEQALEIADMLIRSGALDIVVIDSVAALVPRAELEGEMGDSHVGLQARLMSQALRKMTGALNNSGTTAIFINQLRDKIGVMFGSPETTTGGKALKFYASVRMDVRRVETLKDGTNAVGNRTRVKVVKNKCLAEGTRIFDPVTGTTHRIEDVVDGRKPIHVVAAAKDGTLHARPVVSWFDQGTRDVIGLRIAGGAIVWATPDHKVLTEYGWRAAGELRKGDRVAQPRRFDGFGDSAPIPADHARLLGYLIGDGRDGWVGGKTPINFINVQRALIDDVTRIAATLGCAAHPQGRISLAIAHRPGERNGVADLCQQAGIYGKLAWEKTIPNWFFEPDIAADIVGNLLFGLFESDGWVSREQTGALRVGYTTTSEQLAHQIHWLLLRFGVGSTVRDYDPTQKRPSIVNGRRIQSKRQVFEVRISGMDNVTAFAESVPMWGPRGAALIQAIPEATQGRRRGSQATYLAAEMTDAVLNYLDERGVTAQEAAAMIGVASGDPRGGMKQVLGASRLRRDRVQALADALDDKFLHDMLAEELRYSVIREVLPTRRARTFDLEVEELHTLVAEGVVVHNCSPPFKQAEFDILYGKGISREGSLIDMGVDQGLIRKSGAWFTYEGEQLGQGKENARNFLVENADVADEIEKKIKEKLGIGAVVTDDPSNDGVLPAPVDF

[12] = target: T5, Replicative DNA helicase DnaB (Mycobacterium tuberculosis, UniProt P9WMR3); experiment: DnaB intein splicing inhibitors, dose response, biochemical, cell-free fluorescence (AID 449749); assay type: functional
T5 sequence (P9WMR3 whole entry): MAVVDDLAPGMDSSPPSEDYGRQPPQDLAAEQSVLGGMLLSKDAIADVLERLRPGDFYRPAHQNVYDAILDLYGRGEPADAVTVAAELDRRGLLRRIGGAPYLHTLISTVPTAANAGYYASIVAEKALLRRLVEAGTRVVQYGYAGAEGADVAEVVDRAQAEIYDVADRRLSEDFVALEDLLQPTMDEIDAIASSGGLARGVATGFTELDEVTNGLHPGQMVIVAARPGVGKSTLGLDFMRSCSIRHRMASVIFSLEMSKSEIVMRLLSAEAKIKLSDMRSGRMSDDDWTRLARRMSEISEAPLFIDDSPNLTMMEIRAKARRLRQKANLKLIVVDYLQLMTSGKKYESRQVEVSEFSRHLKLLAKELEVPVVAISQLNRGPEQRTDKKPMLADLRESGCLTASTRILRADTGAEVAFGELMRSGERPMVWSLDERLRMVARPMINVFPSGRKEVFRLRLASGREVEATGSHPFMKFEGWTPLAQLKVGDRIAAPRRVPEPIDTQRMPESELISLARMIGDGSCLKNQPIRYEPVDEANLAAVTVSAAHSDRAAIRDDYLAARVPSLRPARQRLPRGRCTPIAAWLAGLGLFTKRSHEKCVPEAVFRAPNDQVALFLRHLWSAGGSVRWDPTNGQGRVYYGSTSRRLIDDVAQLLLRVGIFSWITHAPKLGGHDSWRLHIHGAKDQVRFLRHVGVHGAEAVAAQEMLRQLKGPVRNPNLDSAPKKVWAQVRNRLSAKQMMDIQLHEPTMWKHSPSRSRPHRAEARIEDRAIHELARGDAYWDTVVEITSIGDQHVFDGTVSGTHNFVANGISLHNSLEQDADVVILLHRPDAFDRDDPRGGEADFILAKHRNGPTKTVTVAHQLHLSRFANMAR

[13] = system: INS1; experiment: beta cell apoptosis inhibitors, cytokine rescue, dose response, luminescence, retest (AID 449756); assay type: functional, cell-based; details: Rattus norvegicus, INS1;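 further: cell death triggered by IL-1 beta plus TNF-alpha plus IFN-gamma mixture; protective hits raise ATP signal compared with cytokine alone wells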
[14] = target: T6, Heat shock factor protein 1 (Mus musculus, UniProt P38532); experiment: HSF1 potentiators in luciferase reporter cells, confirmation, cell-based, NIH3T3, luminescence, dose retest (AID 435004); assay type: functional;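 further: stress induced by proteasome inhibitor MG132 added 30 min after compound; luciferase reporter driven by HSF1 response element in NIH3T3 cells; actives raise luminescence as potentiators of the MG132 stress response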
T6 sequence (P38532 whole entry): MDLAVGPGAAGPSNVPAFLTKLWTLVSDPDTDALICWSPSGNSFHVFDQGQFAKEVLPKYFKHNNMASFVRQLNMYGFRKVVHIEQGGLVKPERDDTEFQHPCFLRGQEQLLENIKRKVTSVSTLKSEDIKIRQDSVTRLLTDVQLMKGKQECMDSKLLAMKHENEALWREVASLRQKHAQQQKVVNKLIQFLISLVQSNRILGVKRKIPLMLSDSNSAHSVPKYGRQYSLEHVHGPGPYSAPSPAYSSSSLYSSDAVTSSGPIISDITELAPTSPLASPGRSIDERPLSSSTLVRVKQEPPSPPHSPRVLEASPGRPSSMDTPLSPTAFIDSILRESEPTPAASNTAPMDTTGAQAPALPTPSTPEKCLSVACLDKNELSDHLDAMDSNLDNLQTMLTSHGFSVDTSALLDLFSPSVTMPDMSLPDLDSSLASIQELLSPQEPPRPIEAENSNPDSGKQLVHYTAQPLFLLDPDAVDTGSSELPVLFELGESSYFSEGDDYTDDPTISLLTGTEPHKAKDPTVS

O=P(Nc1cccc(Cl)c1)(Oc1ccccc1)Oc1ccccc1
IC50 [1]: 8.58 µM (not active)

CCc1c(C)sc2nc3c(C(=O)N4CCOCC4)cc(C(=O)c4cc(F)ccc4O)cn3c(=O)c12
CC50 [2]: > 40 µM (active)

Cc1cc(NC(=O)CSc2nc3ccsc3c(=O)n2CCCC(=O)NCCc2ccccc2)no1
IC50 [1]: 14.1 µM (not active)

CCN(c1ccc(NC(=O)CCNC(=O)c2ccco2)cc1)C(C)C
IC50 [3]: 3.29 µM (not active)

Cc1ccc(C)c(NC(=O)c2cc(-c3ccccc3)nn2-c2ccccc2)c1
CC50 [2]: > 40 µM (active)
AC50 [4]: 33.9 µM (active)

CCOC(=O)C1CCCN(C(=O)CSc2ccc(NC(C)=O)cc2)C1 (stereo not drawn)
IC50 [1]: < 0.4 µM (not active)

COc1ccc(-c2ccc(OC)c([C@H]3[C@H]4C=CC[C@@H](C)[C@@H]4C(=O)N3Cc3ccccc3)c2)cc1C
IC50 [5]: > 80 µM (inactive)

CN(C)c1ccc(/C=c2\sc3nc(-c4ccccc4)nn3c2=O)cc1
IC50 [3]: 5.67 µM (active)

CCn1nc(NC(=O)c2ccncc2)c2cc3cc(C)ccc3nc21
CC50 [2]: > 40 µM (active)
EC50 [6]: > 150 µM (not active)
EC50 [7]: 11.4 µM (active)
EC50 [8]: 1.88 µM (active)

CC1CN(Cc2csc(-c3ccc(Cl)cc3)n2)CC(C)O1 (stereo not drawn)
IC50 [1]: 13.2 µM (not active)

CCn1nc(C)c(/C=N/NC(=O)Cc2ccc(Cl)cc2)c1C
IC50 [3]: < 0.4 µM (not active)

Cn1c(=O)c(C(=O)NNC(=O)c2cccc(Cl)c2)c(O)c2ccccc21
CC50 [2]: > 40 µM (active)

CC(C)[C@H](N)c1nnc(SCC(=O)c2ccc(Cl)cc2)o1
IC50 [5]: > 80 µM (inactive)

O=C(Nc1ccn(Cc2ccccc2F)n1)c1ccc(COc2ccccc2Cl)cc1
CC50 [2]: > 40 µM (active)
AC50 [4]: 1.02 µM (active)

O=C(Nc1ccc(Cl)cc1)N(Cc1nc(O)c2ccccc2n1)Cc1cccs1
CC50 [2]: > 40 µM (active)

C/C=C(/C)C(=O)OC1Cc2c(ccc3ccc(=O)oc23)OC1(C)C (stereo not drawn)
IC50 [5]: > 80 µM (inactive)

CCN(CC)C(=O)c1ccc(S(=O)(=O)Cc2ccc(C)cc2)c([N+](=O)[O-])c1
IC50 [5]: > 80 µM (inactive)

CCOC(=O)c1c(NC(=O)c2ccc(C)cc2)sc2c1CC(C)(C)NC2(C)C
IC50 [9]: > 20 µM (inactive)

O=C(NCc1ccco1)C1CCN(C(=O)c2cc3sccc3n2Cc2ccc(Cl)cc2)CC1
IC50 [1]: 10.9 µM (not active)

Cc1cc(=O)oc2cc(Oc3ccc([N+](=O)[O-])cc3C(F)(F)F)ccc12
CC50 [2]: > 40 µM (active)

COc1cc(/C=C2\C(=N)N3N=C(N4CCOCC4)SC3=NC2=O)ccc1OC(=O)c1ccccc1
IC50 [10]: 80.1 µM (active)

O=C(COC(=O)c1c[nH]c(=O)[nH]c1=O)Nc1cccc([N+](=O)[O-])c1
IC50 [9]: > 20 µM (inactive)

Cc1c(Br)c([N+](=O)[O-])nn1CCCC(=O)Nc1c(C)n(C)n(-c2ccccc2)c1=O
IC50 [9]: > 20 µM (inactive)

O=C(Nc1ccc(N2CCOCC2)cc1)Nc1ccc2nsnc2c1
EC50 [11]: > 380 µM (inactive)
AC50 [12]: 170 µM (active)

O=C(Nc1cc(Sc2ccccn2)cc([N+](=O)[O-])c1)c1cccc(F)c1
AC50 [13]: 5.55 µM (active)
IC50 [1]: 5.86 µM (not active)

CCOC(=O)c1c(NC(C)=O)sc2c1CCC(/C=N/CCCN(CC)CC)=C2Sc1ccccc1
EC50 [11]: 0.229 µM (active)
EC50 [14]: 16.6 µM (active)
AC50 [12]: 0.239 µM (active)

CN1C(=O)c2cccc3c(S(=O)(=O)Nc4ccccc4F)ccc1c23
IC50 [5]: > 80 µM (inactive)

CC1CC(=O)C(C(C2=C(O)CC(C)CC2=O)c2ccccc2)=C(O)C1 (stereo not drawn)
IC50 [10]: 66.2 µM (active)

Clc1ccc2c(c1)CNc1c(ncnc1N1CCOCC1)O2
IC50 [9]: > 20 µM (inactive)
